Laboratory results reported in ChEMBL document CHEMBL4680122, “Design, synthesis and biological evaluation of new Axl kinase inhibitors containing 1,3,4-oxadiazole acetamide moiety as novel linker” (Eur J Med Chem, 2020).
pIC50: −log10 of the molar value.

What was measured:
[1] = tested on: HT-29; experiment: Antiproliferative activity against human HT-29 cells measured after 72 hrs by MTT assay; conditions: HT-29, 72 h
[2] = tested on: PC-3; experiment: Potency index, ratio of foretinib IC50 to test compound IC50 for antiproliferative activity against human PC-3 cells; format: functional
[3] = target: Hepatocyte growth factor receptor (Homo sapiens, UniProt P08581); experiment: Inhibition of human N-terminal GST-fused c-MET cytoplasmic domain (956 to 1390 residues) expressed in baculovirus expression system using Srctide as substrate measured after 1 hr by mobility shift assay
Sequence of Hepatocyte growth factor receptor (P08581 whole entry, the tested form may be a part): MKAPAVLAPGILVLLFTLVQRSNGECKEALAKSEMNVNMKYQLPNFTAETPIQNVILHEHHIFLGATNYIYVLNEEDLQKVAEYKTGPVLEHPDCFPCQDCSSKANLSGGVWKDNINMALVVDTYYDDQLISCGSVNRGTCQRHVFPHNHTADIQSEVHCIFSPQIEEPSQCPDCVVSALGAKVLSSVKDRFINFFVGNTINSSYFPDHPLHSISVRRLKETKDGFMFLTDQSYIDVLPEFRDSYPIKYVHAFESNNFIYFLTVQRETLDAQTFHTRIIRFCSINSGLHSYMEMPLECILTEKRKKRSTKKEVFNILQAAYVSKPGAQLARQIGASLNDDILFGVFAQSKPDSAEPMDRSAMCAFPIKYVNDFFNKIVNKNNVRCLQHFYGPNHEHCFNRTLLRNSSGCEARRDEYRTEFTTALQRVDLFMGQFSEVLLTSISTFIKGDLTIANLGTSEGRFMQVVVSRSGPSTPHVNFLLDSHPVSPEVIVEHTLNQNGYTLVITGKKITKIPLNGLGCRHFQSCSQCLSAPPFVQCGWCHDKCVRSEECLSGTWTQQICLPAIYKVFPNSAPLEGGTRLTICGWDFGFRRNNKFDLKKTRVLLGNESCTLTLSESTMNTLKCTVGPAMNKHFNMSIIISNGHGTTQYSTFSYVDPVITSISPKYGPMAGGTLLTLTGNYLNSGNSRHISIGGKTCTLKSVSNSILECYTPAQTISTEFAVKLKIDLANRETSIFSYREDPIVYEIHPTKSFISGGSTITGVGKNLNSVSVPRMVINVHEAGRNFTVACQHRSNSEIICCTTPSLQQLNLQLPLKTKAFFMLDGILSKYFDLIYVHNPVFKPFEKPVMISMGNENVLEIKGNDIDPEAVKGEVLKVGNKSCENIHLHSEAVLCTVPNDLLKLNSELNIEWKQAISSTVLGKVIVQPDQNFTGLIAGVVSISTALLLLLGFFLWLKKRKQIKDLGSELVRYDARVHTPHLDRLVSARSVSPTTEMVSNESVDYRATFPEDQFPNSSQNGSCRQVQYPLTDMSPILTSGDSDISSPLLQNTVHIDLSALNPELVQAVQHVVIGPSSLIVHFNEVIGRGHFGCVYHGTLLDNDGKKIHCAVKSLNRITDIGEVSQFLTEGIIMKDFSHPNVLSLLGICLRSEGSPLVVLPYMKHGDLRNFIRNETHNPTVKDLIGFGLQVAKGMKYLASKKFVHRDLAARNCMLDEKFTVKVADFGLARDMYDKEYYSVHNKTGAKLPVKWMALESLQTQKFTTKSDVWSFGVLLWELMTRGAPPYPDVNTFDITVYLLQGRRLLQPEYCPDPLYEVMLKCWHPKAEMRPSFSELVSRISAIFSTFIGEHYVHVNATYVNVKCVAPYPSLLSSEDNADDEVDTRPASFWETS

[4] = target: Mast/stem cell growth factor receptor Kit (Homo sapiens, UniProt P10721); experiment: Inhibition of human N-terminal GST-tagged c-Kit cytoplasmic domain (544 to end residues) expressed in baculovirus infected Sf21 insect cells using peptide substrate measured after 1 hr by mobility shift assay
Sequence of Mast/stem cell growth factor receptor Kit (P10721 whole entry, the tested form may be a part): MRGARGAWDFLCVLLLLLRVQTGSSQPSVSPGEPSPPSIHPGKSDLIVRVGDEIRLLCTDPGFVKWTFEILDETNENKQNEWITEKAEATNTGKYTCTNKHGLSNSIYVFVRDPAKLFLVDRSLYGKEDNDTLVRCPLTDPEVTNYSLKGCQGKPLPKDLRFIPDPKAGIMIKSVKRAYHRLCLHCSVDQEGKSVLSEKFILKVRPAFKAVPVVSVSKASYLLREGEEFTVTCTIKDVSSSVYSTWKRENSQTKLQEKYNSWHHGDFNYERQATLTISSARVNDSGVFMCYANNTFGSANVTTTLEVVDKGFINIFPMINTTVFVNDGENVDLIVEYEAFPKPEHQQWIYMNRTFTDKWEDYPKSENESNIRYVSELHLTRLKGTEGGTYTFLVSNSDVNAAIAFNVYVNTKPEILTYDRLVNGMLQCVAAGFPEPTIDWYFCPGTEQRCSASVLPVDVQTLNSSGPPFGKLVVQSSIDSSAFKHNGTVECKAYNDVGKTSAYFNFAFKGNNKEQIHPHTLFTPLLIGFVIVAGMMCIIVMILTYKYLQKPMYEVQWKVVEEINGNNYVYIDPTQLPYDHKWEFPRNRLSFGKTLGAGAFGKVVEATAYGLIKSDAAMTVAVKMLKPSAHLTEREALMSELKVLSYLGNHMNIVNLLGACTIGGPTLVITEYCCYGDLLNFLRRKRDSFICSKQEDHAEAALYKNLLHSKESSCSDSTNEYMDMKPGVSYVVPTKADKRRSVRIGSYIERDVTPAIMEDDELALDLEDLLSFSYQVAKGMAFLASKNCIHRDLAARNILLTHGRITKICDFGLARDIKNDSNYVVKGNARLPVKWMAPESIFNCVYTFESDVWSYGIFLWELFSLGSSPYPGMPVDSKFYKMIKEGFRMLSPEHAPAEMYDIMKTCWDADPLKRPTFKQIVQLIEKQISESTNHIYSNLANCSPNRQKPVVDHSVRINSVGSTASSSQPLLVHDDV

[5] = target: T1, Receptor-type tyrosine-protein kinase FLT3 (Homo sapiens, UniProt P36888); experiment: Inhibition of human N-terminal GST-fused FLT3 cytoplasmic domain (564 to 993 residues) expressed in baculovirus expression system using Srctide as substrate measured after 1 hr by mobility shift assay
T1 sequence (P36888 whole entry): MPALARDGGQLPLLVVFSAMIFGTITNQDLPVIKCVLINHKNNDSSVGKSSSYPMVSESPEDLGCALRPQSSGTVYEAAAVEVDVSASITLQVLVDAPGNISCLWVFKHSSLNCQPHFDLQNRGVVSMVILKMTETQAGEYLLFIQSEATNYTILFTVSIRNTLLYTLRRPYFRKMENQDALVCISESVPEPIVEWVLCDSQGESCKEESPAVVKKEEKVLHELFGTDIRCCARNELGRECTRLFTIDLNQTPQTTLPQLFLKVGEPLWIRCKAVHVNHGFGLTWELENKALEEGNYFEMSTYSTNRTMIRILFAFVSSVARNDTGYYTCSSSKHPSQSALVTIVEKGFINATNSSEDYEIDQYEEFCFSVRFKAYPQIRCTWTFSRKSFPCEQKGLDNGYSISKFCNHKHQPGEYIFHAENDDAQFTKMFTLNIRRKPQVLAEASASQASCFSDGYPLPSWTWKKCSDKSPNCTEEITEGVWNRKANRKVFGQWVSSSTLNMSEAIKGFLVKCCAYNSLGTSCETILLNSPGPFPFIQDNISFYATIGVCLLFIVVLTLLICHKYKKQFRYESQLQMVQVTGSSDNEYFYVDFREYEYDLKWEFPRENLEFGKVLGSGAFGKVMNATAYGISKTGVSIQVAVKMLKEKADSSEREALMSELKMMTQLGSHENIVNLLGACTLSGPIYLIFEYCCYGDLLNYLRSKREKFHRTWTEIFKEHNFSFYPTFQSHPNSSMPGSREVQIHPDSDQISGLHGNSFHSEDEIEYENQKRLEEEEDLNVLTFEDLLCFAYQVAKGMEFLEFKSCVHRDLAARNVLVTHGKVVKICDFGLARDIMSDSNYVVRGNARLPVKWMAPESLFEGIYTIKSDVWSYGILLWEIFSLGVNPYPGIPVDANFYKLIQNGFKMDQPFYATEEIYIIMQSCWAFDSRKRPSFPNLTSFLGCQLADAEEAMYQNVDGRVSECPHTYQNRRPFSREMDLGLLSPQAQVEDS

[6] = target: T2, Tyrosine-protein kinase Mer (Homo sapiens, UniProt Q12866); experiment: Inhibition of MER (unknown origin)
T2 sequence (Q12866 whole entry): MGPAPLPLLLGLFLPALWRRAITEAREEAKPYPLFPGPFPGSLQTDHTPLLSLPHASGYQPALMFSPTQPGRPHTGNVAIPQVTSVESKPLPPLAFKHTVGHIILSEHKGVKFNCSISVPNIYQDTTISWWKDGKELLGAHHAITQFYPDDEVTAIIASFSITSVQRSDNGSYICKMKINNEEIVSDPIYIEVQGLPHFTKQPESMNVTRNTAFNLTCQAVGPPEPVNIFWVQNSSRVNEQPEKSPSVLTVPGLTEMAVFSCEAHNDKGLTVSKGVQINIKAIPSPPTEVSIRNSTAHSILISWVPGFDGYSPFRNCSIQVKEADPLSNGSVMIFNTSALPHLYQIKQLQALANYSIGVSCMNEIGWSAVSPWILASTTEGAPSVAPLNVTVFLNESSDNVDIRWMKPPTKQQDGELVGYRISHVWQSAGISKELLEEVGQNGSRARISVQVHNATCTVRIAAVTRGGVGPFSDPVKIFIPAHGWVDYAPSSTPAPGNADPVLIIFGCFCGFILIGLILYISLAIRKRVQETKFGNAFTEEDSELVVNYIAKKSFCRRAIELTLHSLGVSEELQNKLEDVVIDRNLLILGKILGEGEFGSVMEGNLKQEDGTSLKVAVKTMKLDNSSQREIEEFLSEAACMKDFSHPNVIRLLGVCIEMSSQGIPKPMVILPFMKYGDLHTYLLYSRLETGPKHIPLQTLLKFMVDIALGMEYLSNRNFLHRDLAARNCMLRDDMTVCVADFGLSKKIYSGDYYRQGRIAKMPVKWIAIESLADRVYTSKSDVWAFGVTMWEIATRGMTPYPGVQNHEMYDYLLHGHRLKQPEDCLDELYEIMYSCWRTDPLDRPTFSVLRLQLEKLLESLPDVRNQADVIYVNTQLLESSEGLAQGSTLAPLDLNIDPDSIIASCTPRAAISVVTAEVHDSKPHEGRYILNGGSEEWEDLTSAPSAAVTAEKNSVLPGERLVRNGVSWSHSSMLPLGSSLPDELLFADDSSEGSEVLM

[7] = tested on: PC-3; experiment: cells; conditions: Homo sapiens, PC-3, 72 h
Description: Antiproliferative activity against human PC-3 cells measured after 72 hrs by MTT assay

[8] = tested on: H1975/Gefitinib; experiment: cells; conditions: Homo sapiens, 72 h

- pIC50 [1]: 5.99
- pIC50 [3]: 7.15
- pIC50 [4]: 7.20
- pIC50 [5]: 6.99
- pIC50 [6]: < 6.70
- pIC50 [7]: 6.23
- pIC50 [8]: 6.97
Structure (SMILES): COc1cc2c(Oc3ccc(NC(=O)C4(c5nnc(-c6ccc(F)cc6)o5)CC4)cc3F)ccnc2cc1OCCCN1CCCCC1
- Ratio IC50 [2]: 1.54
